Patent EP0287128A1, “Antitumor agent” (RESEARCH CORPORATION TECHNOLOGIES, INC., priority 1987, dated 1988)

Tests used:
Lewis lung carcinoma = experiment: in vivo
Description: (§1) The tumor tissue was obtained from mice bearing 7 to 10 day old tumors. To obtain the tumors, the animals were sacrificed by cervical dislocation. Tumors were removed aseptically and placed into petri dishes containing ice-cold phosphate buffered saline. Tumors were debrided, necrotic tissue was removed and viable tissue was cut into 2-3 mm fragments. These fragments were loaded into 13-gauge trochars for implantation. Animals were weighed prior to each i.p. injection, which began one day after implantation unless otherwise noted, so that the volume of injection could be adjusted to their individual weight.
(§2) Animals were implanted with Lewis lung carcinoma. Five animals were given FdC (12mg/kg) + H₄U 25mg/kg + BAU 9mg/kg 1/day × 7 days starting on day 1. Comparisons included FUra (25mg/kg) and FUra + BAU (10mg/kg).
(§3) Animals were implanted with Lewis lung carcinoma. Seven animals were given FdC (12mg/kg) + H₄U (25mg/kg) + BAU (30mg/kg). Comparisons included FUra 25 mg/kg and FUra + BAU (30mg/kg). The treatment schedule was as in Example 1A.
(§4) Animals were implanted with Lewis lung carcinoma. The treatment schedule was as described above. A comparison was made with FdU tested at its maximum tolerated dose, 75mg/kg. […] "Day of breakout" indicates the day tumor growth was first noticed in a group of animals in which tumor growth was arrested or in which tumor regression occurred.
(§5) Mice were implanted bilaterally with Lewis lung carcinoma (see Table 3).
(§6) Animals were implanted with Lewis lung carcinoma (see Table 4).

[1] = tested on: mammary adenocarcinoma-755 in its ascitic form; experiment: Mammary adenocarcinoma-755, ascitic form, injected i.p. into mice; assay type: in vivo, BD2F₁ mice; conditions: for Day of Death / # Cures /6 mice / % Cures / mean day of death / Maximum Weight Loss / T/C: Table 7; for Day of Death: individual animals; for Day of Death / # Cures /6 mice / % Cures / mean day of death / T/C: mg/kg: FdC 12, H4U 25, BAU 10, FUra 26 (with BAU); for Maximum Weight Loss: mg/kg: FdC 12, H4U 25, BAU 10, FUra 26 (with BAU; alone not given); for T/C: not including cures
Description: Forty-eight hours later (day 2) treatment 1/day × 7) was initiated.

in vivo = conditions: mouse, in vivo
Description: as §1, §2, §3, §4, §5, §6

[2] = Example 2, BAU 30 mg/kg, H4U 25 mg/kg, administered without a fluorinated pyrimidine analog
[3] = Table 3, one cycle (I) or no cycle mark, mg/kg: FdU 70, FdC 12, H4U 25, BAU 30 where given

SMILES: O=c1[nH]c(=O)n(COCCO)cc1Cc1ccccc1 [BAU, benzacyclouridine]
- cures (Lewis lung carcinoma; [2]): no cures
- mean day of death (Lewis lung carcinoma; [2]): no increase
- tumor inhibition (Lewis lung carcinoma; [2]): no significant tumor inhibition

SMILES: O=c1[nH]cc(F)c(=O)[nH]1 [FUra, 5-fluorouracil]
- cures (Lewis lung carcinoma; Examples 1A and 1B together, i.p. 1/day x 7 days from day 1, mg/kg: FdC 12, H4U 25, BAU 9 or 30, FUra 25): No cures
- # of cures/6 ([1]; Table 6, inoculum 10^7 cells, mg/kg: FdC 12, H4U 25, BAU 10, FUra 25, FdU 60): No cures
- Day of Death ([1]; inoculum 5 x 10^5 cells): 17,18 21,22
- Day of Death ([1]; inoculum 10^5 cells): 17,19 21,33
- # Cures /6 mice ([1]; inoculum 5 x 10^5 cells): 1
- % Cures ([1]; inoculum 5 x 10^5 cells): 17%
- mean day of death ([1]; inoculum 5 x 10^5 cells, control 12.5): 19.2
- Maximum Weight Loss ([1]; inoculum 5 x 10^5 cells): 17.4
- # Cures /6 mice ([1]; inoculum 10^5 cells): 2
- % Cures ([1]; inoculum 10^5 cells): 33%
- mean day of death ([1]; inoculum 10^5 cells): 20.0
- Maximum Weight Loss ([1]; inoculum 10^5 cells): 17.0
- T/C ([1]; inoculum 5 x 10^5 cells): 1.51
- T/C ([1]; inoculum 10^5 cells): 1.57

SMILES: O=c1[nH]c(=O)n([C@H]2C[C@H](O)[C@@H](CO)O2)cc1F [FdU, 5-fluorodeoxyuridine]
- MTD at 7 days (in vivo): 75 mg/kg
- % Tumor Inhibition (Lewis lung carcinoma; Table 3, day 10, one cycle (I) or no cycle mark, mg/kg: FdU 70, FdC 12, H4U 25, BAU 30 where given): 83%
- % Tumor Inhibition (Lewis lung carcinoma; Table 3, day 14, one cycle (I) or no cycle mark, mg/kg: FdU 70, FdC 12, H4U 25, BAU 30 where given): 74%
- % Tumor Inhibition (Lewis lung carcinoma; Table 3, day 18, one cycle (I) or no cycle mark, mg/kg: FdU 70, FdC 12, H4U 25, BAU 30 where given): 58%
- % Tumor Inhibition (Lewis lung carcinoma; Table 3, day 22, one cycle (I) or no cycle mark, mg/kg: FdU 70, FdC 12, H4U 25, BAU 30 where given): 42%
- % Tumor Inhibition (Lewis lung carcinoma; Table 3, day 26, one cycle (I) or no cycle mark, mg/kg: FdU 70, FdC 12, H4U 25, BAU 30 where given): 31%
- % Tumor Inhibition (Lewis lung carcinoma; Table 3, day 38, one cycle (I) or no cycle mark, mg/kg: FdU 70, FdC 12, H4U 25, BAU 30 where given): 19%
- T/C (Lewis lung carcinoma; Table 3, mean day of death T/C, one cycle (I) or no cycle mark, mg/kg: FdU 70, FdC 12, H4U 25, BAU 30 where given, * not including cures): 1.24
- # Cures /6 (Lewis lung carcinoma; [3]): 0
- # Toxic Deaths /6 (Lewis lung carcinoma; [3]): 0
- Maximum % Weight Loss (Lewis lung carcinoma; [3]): 19%
- Mean Day of Death (Lewis lung carcinoma; Table 3, one cycle (I) or no cycle mark, mg/kg: FdU 70, FdC 12, H4U 25, BAU 30 where given, * not including cures, control 21.1): 26.0

SMILES: O=C1NC(O)CCN1[C@@H]1O[C@H](CO)[C@@H](O)[C@H]1O (some centres unmarked) [H₄U, tetrahydrouridine]
- cures (Lewis lung carcinoma; [2]): no cures
- mean day of death (Lewis lung carcinoma; [2]): no increase
- tumor inhibition (Lewis lung carcinoma; [2]): no significant tumor inhibition
